Data reported in article PMC11536340, “A Dynamic Loop in Halohydrin Dehalogenase HheG Regulates Activity and Enantioselectivity in Epoxide Ring Opening” (ACS Catalysis, 2024).
Like-named read-outs stand apart in the source and are kept apart here.

Molecular target: T1, HheG (Ilumatobacter coccineus, UniProt Z9P531QQL2, M65F, form not given)
T1 construct: homotetramer
T1 sequence (Z9P531QQL2 21-282 M65F): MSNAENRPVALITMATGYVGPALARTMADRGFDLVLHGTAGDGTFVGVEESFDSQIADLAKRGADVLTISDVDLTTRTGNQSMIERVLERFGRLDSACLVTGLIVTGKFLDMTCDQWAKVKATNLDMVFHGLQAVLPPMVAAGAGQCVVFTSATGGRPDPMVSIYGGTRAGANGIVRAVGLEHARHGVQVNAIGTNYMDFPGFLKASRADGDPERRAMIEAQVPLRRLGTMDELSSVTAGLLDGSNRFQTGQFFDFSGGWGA
Experiment: BTB (bromothymol blue) pH-indicator assay, initial rates, Hill fit
Assay type: biochemical
Details: 2 mM MOPS pH 7.0
Description: BTB (bromothymol blue) pH-indicator assay, initial rates, Hill fit on HheG

Km (azide fixed at 60 mM, Hill coefficient n 3.33 ± 0.27, read-out: cyclohexene oxide / K50) | SMILES | Km (cyclohexene oxide fixed at 100 mM, Hill coefficient n 3.94 ± 0.29, read-out: azide / K50)
28 ± 0.64 mM | C1CCC2OC2C1 (centres unmarked) [compound 1, cyclohexene oxide] | –
– | [N-]=[N+]=[N-] [azide] | 10.1 ± 0.21 mM
